Earlier results as cited in patent US8679507B2, “Testosterone olfaction” (priority 2012, dated 2014).

System: human females
Settings: female college students, upper lip exposed; follicular phase

Which “frequency of the LH pulse” value does the source give for `C[C@]12CC[C@@H](O)C[C@@H]1CC[C@@H]1[C@@H]2CC[C@]2(C)C=CC[C@@H]12` [androstenol] here?
Its value is “decreased”.
